The assay has as its target T1, CDK2/cyclin A (Homo sapiens, UniProt P24941).
T1 construct: made in house; host or cells: insect ('worm') cells co-infected with baculoviruses
Put plainly: CDK2 inhibitory activity (CDK2/cyclin A, [gamma-32P] ATP, histon H1 or Rb protein substrate). Type of assay: biochemical. Conditions: first IC50 column (c1) of Table 1. The text has this:
CDK2 enzyme was obtained from either extract from the worm cell co-infected with baculovirus which expresses a CDK2 gene and baculovirus which expresses a cyclin A gene, or active enzyme purified therefrom. CDK4 was also obtained from either extract from the worm cell co-infected with baculovirus which expresses a CDK4 gene and baculovirus which expresses a cyclin D1 gene. As substrates, histon H1 or Rb protein was used for CDK2, and Rb protein for CDK4. The radioactive activities in substrates were determined by reacting compounds diluted with each concentration with a proper quantity of CDK2/cyclin A or CDK4/cyclin D1 and substrate protein, and [gamma-32P labeled] ATP, and then separating the substrates.
Inhibitory abilities of inhibitors according to the present invention for each enzyme activity were expressed as IC50 values, which were determined in accordance with the method as described above.
For the molecule `CS(=O)(=O)c1ccc(CC(=O)Nc2n[nH]c3ccc(N4CCCS4(=O)=O)cc23)cc1` [Compound 29, N-[5-(1,1-dioxo-1λ^6-isothiazolidin-2-yl)-1H-indazol-3-yl]-2-[4-(methylsulfonyl)phenyl]acetamide], the IC50 (usually the concentration that inhibits the measured activity by half) is below 50 nM. For `CN1CCN(CC(=O)Nc2n[nH]c3ccc(N4CCCS4(=O)=O)cc23)CC1` [Compound 30, N-[5-(1,1-dioxo-1λ^6-isothiazolidin-2-yl)-1H-indazol-3-yl]-2-(4-methyl-1-piperazinyl)acetamide] the value was below 10000 nM; for `O=C(CN1CCOCC1)Nc1n[nH]c2ccc(N3CCCS3(=O)=O)cc12` [Compound 31, N-[5-(1,1-dioxo-1λ^6-isothiazolidin-2-yl)-1H-indazol-3-yl]-2-(4-morpholinyl)acetamide], below 10000 nM. The result for `O=C(CN1CCCCC1)Nc1n[nH]c2ccc(N3CCCS3(=O)=O)cc12` [Compound 32, N-[5-(1,1-dioxo-1λ^6-isothiazolidin-2-yl)-1H-indazol-3-yl]-2-(1-piperidinyl)acetamide] reads below 10000 nM; that for `O=C(Cc1ccc(-c2ccncc2)cc1)Nc1n[nH]c2ccc(N3CCCS3(=O)=O)cc12` [Compound 33, N-[5-(1,1-dioxo-1λ^6-isothiazolidin-2-yl)-1H-indazol-3-yl]-2-[4-(4-pyridinyl)phenyl]acetamide], below 50 nM; that for `O=C(Cc1ccc(N2CCOCC2)cc1)Nc1n[nH]c2ccc(N3CCCS3(=O)=O)cc12` [Compound 35, N-[5-(1,1-dioxo-1λ^6-isothiazolidin-2-yl)-1H-indazol-3-yl]-2-[4-(1-morpholinyl)phenyl]acetamide], below 100 nM. The result for `O=C(Cc1ccc(-c2ccsc2)cc1)Nc1n[nH]c2ccc(N3CCCS3(=O)=O)cc12` [Compound 36, N-[5-(1,1-dioxo-1λ^6-isothiazolidin-2-yl)-1H-indazol-3-yl]-2-[4-(3-thienyl)phenyl]acetamide] reads below 50 nM; that for `O=C(Cc1ccc(S(=O)(=O)N2CCOCC2)cc1)Nc1n[nH]c2ccc(N3CCCS3(=O)=O)cc12` [Compound 37, N-[5-(1,1-dioxo-1λ^6-isothiazolidin-2-yl)-1H-indazol-3-yl]-2-[4-(4-morpholinylsulfonyl)phenyl]acetamide], below 100 nM. Take `COc1ccc(CC(=O)Nc2n[nH]c3ccc(N4CCCS4(=O)=O)cc23)cc1` [Compound 38, N-[5-(1,1-dioxo-1λ^6-isothiazolidin-2-yl)-1H-indazol-3-yl]-2-(4-methoxyphenyl)acetamide]: the IC50 is below 100 nM. The molecule `O=C(Cc1ccc(-c2ccco2)cc1)Nc1n[nH]c2ccc(N3CCCS3(=O)=O)cc12` [Compound 39, N-[5-(1,1-dioxo-1λ^6-isothiazolidin-2-yl)-1H-indazol-3-yl]-2-[4-(2-furyl)phenyl]acetamide] displayed an IC50 below 50 nM. The result for `CN1CCN(S(=O)(=O)c2ccc(CC(=O)Nc3n[nH]c4ccc(N5CCCS5(=O)=O)cc34)cc2)CC1` [Compound 40, N-[5-(1,1-dioxo-1λ^6-isothiazolidin-2-yl)-1H-indazol-3-yl]-2-4-[(4-methyl-1-piperazinyl)sulfonyl]phenylacetamide] reads below 1000 nM.

The molecule `O=C(Cn1cnc2ccccc21)Nc1n[nH]c2ccc(N3CCCS3(=O)=O)cc12` [Compound 41, 2-(1H-benzimidazol-1-yl)-N-[5-(1,1-dioxo-1λ^6-isothiazolidin-2-yl)-1H-indazol-3-yl]acetamide] had an IC50 below 50 nM. With `CCOc1ccc(CC(=O)Nc2n[nH]c3ccc(N4CCCS4(=O)=O)cc23)cc1` [Compound 42, N-[5-(1,1-dioxo-1λ^6-isothiazolidin-2-yl)-1H-indazol-3-yl]-2-(4-ethoxyphenyl)acetamide], the IC50 is below 50 nM. The result for `O=C(Cc1ccc(CN2CCOCC2)cc1)Nc1n[nH]c2ccc(N3CCCS3(=O)=O)cc12` [Compound 43, N-[5-(1,1-dioxo-1λ^6-isothiazolidin-2-yl)-1H-indazol-3-yl]-2-[4-(4-morpholinylmethyl)phenyl]acetamide] reads below 100 nM; that for `O=C(Cc1ccc([N+](=O)[O-])cc1)Nc1n[nH]c2ccc(N3CCCS3(=O)=O)cc12` [Compound 45, N-[5-(1,1-dioxo-1λ^6-isothiazolidin-2-yl)-1H-indazol-3-yl]-2-(4-nitrophenyl)acetamide], below 50 nM; that for `O=C(Cc1ccc(Cn2ccnc2)cc1)Nc1n[nH]c2ccc(N3CCCS3(=O)=O)cc12` [Compound 46, N-[5-(1,1-dioxo-1λ^6-isothiazolidin-2-yl)-1H-indazol-3-yl]-2-[4-(1H-imidazole-1-ylmethyl)phenyl]acetamide], below 1000 nM. The result for `O=C(Cn1cnc(-c2ccccc2)c1)Nc1n[nH]c2ccc(N3CCCS3(=O)=O)cc12` [Compound 47, N-[5-(1,1-dioxo-1λ^6-isothiazolidin-2-yl)-1H-indazol-3-yl]-2-(4-phenyl-1H-imidazol-1-yl)acetamide] reads below 50 nM; that for `O=C(CN1CCc2ccccc2C1)Nc1n[nH]c2ccc(N3CCCS3(=O)=O)cc12` [Compound 49, 2-[3,4-dihydro-2(1H)-isoquinolinyl]-N-[5-(1,1-dioxo-1λ^6-isothiazolidin-2-yl)-1H-indazol-3-yl]acetamide], below 1000 nM. Take `COc1ccc(N2CCN(CC(=O)Nc3n[nH]c4ccc(N5CCCS5(=O)=O)cc34)CC2)cc1` [Compound 51, N-[5-(1,1-dioxo-1λ^6-isothiazolidin-2-yl)-1H-indazol-3-yl]-2-[4-(4-methoxyphenyl)-1-piperazinyl]acetamide]: the IC50 was below 10000 nM. For `CCOc1ccccc1N1CCN(CC(=O)Nc2n[nH]c3ccc(N4CCCS4(=O)=O)cc23)CC1` [Compound 52, N-[5-(1,1-dioxo-1λ^6-isothiazolidin-2-yl)-1H-indazol-3-yl]-2-[4-(2-ethoxyphenyl)-1-piperazinyl]acetamide] the value was below 10000 nM; for `CC(=O)c1ccc(N2CCN(CC(=O)Nc3n[nH]c4ccc(N5CCCS5(=O)=O)cc34)CC2)cc1` [Compound 53, 2-[4-(4-acetylphenyl)-1-piperazinyl]-N-[5-(1,1-dioxo-1λ^6-isothiazolidin-2-yl)-1H-indazol-3-yl]acetamide], below 10000 nM; for `O=C(Cc1ccc(Oc2ccccc2)cc1)Nc1n[nH]c2ccc(N3CCCS3(=O)=O)cc12` [Compound 54, N-[5-(1,1-dioxo-1λ^6-isothiazolidin-2-yl)-1H-indazol-3-yl]-2-(4-phenoxyphenyl)acetamide], below 100 nM. Molecule `O=C(Nc1n[nH]c2ccc(N3CCCS3(=O)=O)cc12)C1(c2ccccc2)CCCC1` [Compound 55, N-[5-(1,1-dioxo-1λ^6-isothiazolidin-2-yl)-1H-indazol-3-yl]-1-phenylcyclopentanecarboxamide] gave an IC50 below 100000 nM. The result for `O=C(Nc1n[nH]c2ccc(N3CCCS3(=O)=O)cc12)C(c1ccccc1)C1CCCC1` (stereo not drawn) [Compound 56, 2-cyclopentyl-N-[5-(1,1-dioxo-1λ^6-isothiazolidin-2-yl)-1H-indazol-3-yl]-2-phenylacetamide] reads below 100000 nM; that for `CCC(C(=O)Nc1n[nH]c2ccc(N3CCCS3(=O)=O)cc12)c1ccccc1` (stereo not drawn) [Compound 57, N-[5-(1,1-dioxo-1λ^6-isothiazolidin-2-yl)-1H-indazol-3-yl]-2-phenylbutanamide], below 100000 nM. For `CC(C)(C)OC(=O)Nc1nc(CC(=O)Nc2n[nH]c3ccc(N4CCCS4(=O)=O)cc23)cs1` [Compound 58, t-butyl 4-(2-[5-(1,1-dioxo-1λ^6-isothiazolidin-2-yl)-1H-indazol-3-yl]amino-2-oxoethyl)-1,3-thiazol-2-ylcarbamate] the value was below 100 nM; for `CCOCCOCCOc1ccc(CC(=O)Nc2n[nH]c3ccc(N4CCCS4(=O)=O)cc23)cc1` [Compound 59, N-[5-(1,1-dioxo-1λ^6-isothiazolidin-2-yl)-1H-indazol-3-yl]-2-4-[2-(2-ethoxyethoxy)ethoxy]phenylacetamide], below 100 nM; for `Nc1nc(CC(=O)Nc2n[nH]c3ccc(N4CCCS4(=O)=O)cc23)cs1` [Compound 60, 2-(2-amino-1,3-thiazol-4-yl)-N-[5-(1,1-dioxo-1λ^6-isothiazolidin-2-yl)-1H-indazol-3-yl]acetamide], below 500 nM. For `O=C(Cn1cnc(-c2ccc(Br)cc2)c1)Nc1n[nH]c2ccc(N3CCCS3(=O)=O)cc12` [Compound 61, 2-[4-(4-bromophenyl)-1H-imidazol-1-yl]-N-[5-(1,1-dioxo-1λ^6-isothiazolidin-2-yl)-1H-indazol-3-yl]acetamide] the value was below 100 nM; for `O=C(Cn1cnc(-c2ccc3ccccc3c2)c1)Nc1n[nH]c2ccc(N3CCCS3(=O)=O)cc12` [Compound 62, N-[5-(1,1-dioxo-1λ^6-isothiazolidin-2-yl)-1H-indazol-3-yl]-2-[4-(2-naphthyl)-1H-imidazol-1-yl]acetamide], below 50 nM; for `O=C(Cn1cnc(-c2ccc(-c3ccccc3)cc2)c1)Nc1n[nH]c2ccc(N3CCCS3(=O)=O)cc12` [Compound 63, 2-(4-[1,1′-biphenyl]-4-yl-1H-imidazol-1-yl)-N-[5-(1,1-dioxo-1λ^6-isothiazolidin-2-yl)-1H-indazol-3-yl]acetamide], below 500 nM. Molecule `CCNc1nc(CC(=O)Nc2n[nH]c3ccc(N4CCCS4(=O)=O)cc23)cs1` [Compound 64, N-[5-(1,1-dioxo-1λ^6-isothiazolidin-2-yl)-1H-indazol-3-yl]-2-[2-(ethylamino)-1,3-thiazol-4-yl]acetamide] registered an IC50 below 500 nM. The result for `CCN(CC)c1nc(CC(=O)Nc2n[nH]c3ccc(N4CCCS4(=O)=O)cc23)cs1` [Compound 65, 2-[2-(diethylamino)-1,3-thiazol-4-yl]-N-[5-(1,1-dioxo-1λ^6-isothiazolidin-2-yl)-1H-indazol-3-yl]acetamide] reads below 500 nM.

Values taken from US6620831B2, “Indazoles substituted with 1,1-dioxoisothiazolidine useful as inhibitors of cell proliferation” (LG Life Sciences Ltd., priority 2000, dated 2003).
